{"source": "patent US7759337B2", "about": "“Phthalazine compounds and methods of use” (Amgen Inc., priority 2005, dated 2010)", "system": "production of TNF by monocytes activated with bacterial lipopolysaccharide (LPS)", "assay": "Lipopolysaccharide-activated monocyte TNF production assay", "assay_type": "cell-based", "conditions": "Homo sapiens; whole blood monocyte assay (LPS induced TNF release)", "protocol": "Test compounds were evaluated in vitro for the ability to inhibit the production of TNF by monocytes activated with bacterial lipopolysaccharide (LPS). Fresh residual source leukocytes (a byproduct of plateletpheresis) were obtained from a local blood bank, and peripheral blood mononuclear cells (PBMCs) were isolated by density gradient centrifugation on Ficol-Paque Plus (Pharmacia). PBMCs were suspended at 2×10^6/mL in DMEM supplemented to contain 2% FCS, 10 mM, 0.3 mg/mL […], 100 U/mL penicillin G and […] streptomycin sulfate (complete media). Cells were plated into Falcon flat bottom, 96 well culture plates (200 μL/well) and cultured overnight at 37° C. and 6% CO2. Non-adherent cells were removed by washing with 200 μl/well of fresh medium.\nTest compounds were dissolved in […]. Compound stock solutions were prepared to an initial concentration of […]. Stocks were diluted initially to 20-200 μM in complete media. Nine two-fold serial dilutions of each compound were then prepared in complete medium.\nOne hundred microliters of each test compound dilution were added to microtiter wells containing adherent monocytes and 100 μL complete medium. Monocytes were cultured with test compounds for 60 min at which time 25 μL of complete medium containing 30 ng/mL lipopolysaccharide from E. coli K532 were added to each well. Cells were cultured an additional 4 hrs. Culture supernatants were then removed and TNF presence in the supernatants was quantified using an ELISA.\nFlat bottom, 96 well Corning High Binding ELISA plates were coated overnight (4° C.) with 150 μL/well of 3 μg/mL murine anti-human TNF-α MAb (R&D Systems #MAB210). Wells were then blocked for 1 h at room temperature with 200 μL/well of CaCl2-free ELISA buffer supplemented to contain 20 mg/mL BSA (standard ELISA buffer: […], 150 mM NaCl, 2 mM CaCl2, 0.15 mM thimerosal, pH 7.4). Plates were washed and replenished with 100 μL of test supernatants (diluted 1:3) or standards. Standards consisted of eleven 1.5-fold serial dilutions from a stock of I ng/mL recombinant human TNF (R&D Systems). Plates were incubated at room temperature for 1 h on orbital shaker (300 rpm), washed and replenished with 100 μL/well of 0.5 μg/mL goat anti-human TNF-α (R&D systems #AB-210-NA) biotinylated at a 4:1 ratio. Plates were incubated for 40 min, washed and replenished with 100 μL/well of alkaline phosphatase-conjugated streptavidin (Jackson ImmunoResearch #016-050-084) at 0.02 μg/mL. Plates were incubated 30 min, washed and replenished with 200 μL/well of 1 mg/mL of p-nitrophenyl phosphate. After 30 min, plates were read at 405 nm on a Vmax plate reader.\nStandard curve data were fit to a second order polynomial and unknown TNF-α concentrations determined from their OD by solving this equation for concentration. TNF concentrations were then plotted vs. test compound concentration using a second order polynomial. This equation was then used to calculate the concentration of test compounds causing a 50% reduction in TNF production.", "data": [{"smiles": "Cc1ccc(-c2nnn[nH]2)cc1-c1ccc2c(N3CCOCC3)nncc2c1", "note": "[Example 77, 6-[2-Methyl-5-(1H-tetraazol-5-yl)phenyl]-1-morpholin-4-ylphthalazine]", "values": [{"measurement": "IC50", "value": "≤ 5", "unit": "µM"}]}, {"smiles": "Cc1ccc(C(=O)NC2CC2)cc1-c1ccc2c(C#N)nncc2c1", "note": "[Example 79, 3-(1-cyanophthalazin-6-yl)-N-cyclopropyl-4-methylbenzamide]", "values": [{"measurement": "IC50", "value": "≤ 5", "unit": "µM"}]}, {"smiles": "Cc1sc(C(=O)NC2CC2)cc1-c1ccc2c(N3CCOCC3)nncc2c1", "note": "[Example 80, N-Cyclopropyl-5-methyl-4-(1-morpholin-4-ylphthalazin-6-yl)thiophene-2-carboxamide]", "values": [{"measurement": "IC50", "value": "≤ 5", "unit": "µM"}]}, {"smiles": "Cc1ccc(C(N)=O)cc1-c1ccc2c(N3CCOC[C@H]3C)nncc2c1", "note": "[Example 82, 4-Methyl-3-{1-[(3R)-3-methylmorpholin4-yl]phthalazin-6-yl}benzamide]", "values": [{"measurement": "IC50", "value": "≤ 5", "unit": "µM"}]}, {"smiles": "Cc1ccc(C(=O)NC2CC2)cc1-c1ccc2c(C(N)=O)nncc2c1", "note": "[Example 83, 6-{5-[(Cyclopropylamino)carbonyl]-2-methylphenyl}phthalazine-1-carboxamide]", "values": [{"measurement": "IC50", "value": "≤ 5", "unit": "µM"}]}, {"smiles": "CC(=O)c1nnc(C)c2cc(-c3cc(C(=O)NC4CC4)ccc3C)ccc12", "note": "[Example 84, 3-(1-Acetyl-4-methylphthalazin-6-yl)-N-cyclopropyl-4-methylbenzamide]", "values": [{"measurement": "IC50", "value": "≤ 5", "unit": "µM"}]}, {"smiles": "Cc1ccc(C(=O)NC2CC2)cc1-c1ccc2c(C(=O)N3CCOCC3)nncc2c1", "note": "[Example 85, N-Cyclopropyl-4-methyl-3-[1-(morpholin-4-ylcarbonyl)phthalazin-6-yl]benzamide]", "values": [{"measurement": "IC50", "value": "≤ 5", "unit": "µM"}]}, {"smiles": "Cc1ccc(C(N)=O)cc1-c1ccc2c(N3CCCC3=O)nncc2c1", "note": "[Example 94, 4-methyl-3-(1-(2-oxopyrrolidine-1-yl)phthalazin-6-yl)benzamide]", "values": [{"measurement": "IC50", "value": "≤ 5", "unit": "µM"}]}, {"smiles": "Cc1ccc(C(N)=O)cc1-c1ccc2c(-c3ccc(S(C)(=O)=O)cc3C)nncc2c1", "note": "[Example 96, 4-methyl-3-(1-(2-methyl-4-(methylsulfonyl)phenyl)phthalazin-6-yl)benzamide]", "values": [{"measurement": "IC50", "value": "≤ 5", "unit": "µM"}]}, {"smiles": "Cc1ccc(C(=O)NC2CC2)cc1-c1ccc2c(N3CCCC[C@@H]3C)nncc2c1", "note": "[Example 97, N-cyclopropyl-4-methyl-3-{1-[(2S)-2-methylpiperidin-1-yl]phthalazin-6-yl}benzamide]", "values": [{"measurement": "IC50", "value": "≤ 5", "unit": "µM"}]}, {"smiles": "Cc1ccc(C(=O)NC2CC2)cc1-c1ccc2c(-c3ccccc3C(N)=O)nncc2c1", "note": "[Example 98, 3-(1-(2-(aminocarbonyl)phenyl)-6-phthalazinyl)-N-cyclopropyl-4-methylbenzamide]", "values": [{"measurement": "IC50", "value": "≤ 5", "unit": "µM"}]}, {"smiles": "Cc1ccc(C(=O)NC2CC2)cc1-c1ccc2c(N3CCN4C(=O)OC[C@H]4C3)nncc2c1", "note": "[Example 99, 3-{1-[(8aR)-3-oxotetrahydro[1,3]oxazolo[3,4-a]pyrazin-7(1H)-yl]phthalazin-6-yl}-N-cyclopropyl-4-methylbenzamide]", "values": [{"measurement": "IC50", "value": "≤ 5", "unit": "µM"}]}, {"smiles": "Cc1ccc(C(=O)NC2CC2)cc1-c1ccc2c(N3CCNC(=O)[C@H]3C)nncc2c1", "note": "[Example 100, N-cyclopropyl-4-methyl-3-{1-[(2R)-2-methyl-3-oxopiperazin-1-yl]phthalazin-6-yl}benzamide]", "values": [{"measurement": "IC50", "value": "≤ 5", "unit": "µM"}]}, {"smiles": "Cc1ccc(C(=O)NC2CC2)cc1-c1ccc2c(N3CCN4C(=O)OC[C@@H]4C3)nncc2c1", "note": "[Example 101, 3-{1-[(8aS)-3-oxotetrahydro[1,3]oxazolo[3,4-a]pyrazin-7(1H)-yl]phthalazin-6-yl}-N-cyclopropyl-4-methylbenzamide]", "values": [{"measurement": "IC50", "value": "≤ 5", "unit": "µM"}]}, {"smiles": "Cc1ccc(C(=O)NC2CC2)cc1-c1ccc2c(N3CCN4C(=O)CC[C@H]4C3)nncc2c1", "note": "[Example 102, 3-{1-[(8aS)-6-oxohexahydropyrrolo[1,2-a]pyrazin-2(1H)-yl]phthalazin-6-yl}-N-cyclopropyl-4-methylbenzamide]", "values": [{"measurement": "IC50", "value": "≤ 5", "unit": "µM"}]}, {"smiles": "Cc1ccc(C(=O)NC2CC2)cc1-c1ccc2c(N3CCc4c(O)n[nH]c4C3)nncc2c1", "note": "[Example 103, N-cyclopropyl-3-(1-(3-hydroxy-4,5-dihydro-1H-pyrazolo[3,4-c]pyridin-6(7H)-yl)phthalazin-6-yl)-4-methylbenzamide]", "values": [{"measurement": "IC50", "value": "≤ 5", "unit": "µM"}]}, {"smiles": "Cc1ccc(C(=O)NC2CC2)cc1-c1ccc2c(N3CCn4c(nnc4C(F)(F)F)C3)nncc2c1", "note": "[Example 104, N-cyclopropyl-4-methyl-3-(1-(3-(trifluoromethyl)-5,6-dihydro-[1,2,4]triazolo[4,3-a]pyrazin-7(8H)-yl)phthalazin-6-yl)benzamide]", "values": [{"measurement": "IC50", "value": "≤ 5", "unit": "µM"}]}, {"smiles": "Cc1ccc(C(=O)NC2CC2)cc1-c1ccc2c(N3CCCC3C)nncc2c1", "note": "(stereo not drawn) [Example 105, N-cyclopropyl-4-methyl-3-(1-(2-methylpyrrolidin-1-yl)phthalazin-6-yl)benzamide]", "values": [{"measurement": "IC50", "value": "≤ 5", "unit": "µM"}]}, {"smiles": "Cc1ccc(S(N)(=O)=O)cc1-c1ccc2c(N3CCOCC3)nncc2c1", "note": "[Example 106, 4-Methyl-3-(1-morpholinophthalazin-6-yl)benzenesulfonamide]", "values": [{"measurement": "IC50", "value": "≤ 5", "unit": "µM"}]}, {"smiles": "Cc1ccc(C(=O)Nc2ccon2)cc1-c1ccc2c(N3CCOCC3)nncc2c1", "note": "[Example 108, N-(Isoxazol-3-yl)-4-methyl-3-(1-morpholinophthalazin-6-yl)benzamide]", "values": [{"measurement": "IC50", "value": "≤ 5", "unit": "µM"}]}, {"smiles": "Cc1ccc(C(=S)NC2CC2)cc1-c1ccc2c(N3CCOCC3)nncc2c1", "note": "[Example 109, N-Cyclopropyl-4-methyl-3-(1-morpholinophthalazin-6-yl)benzothioamide]", "values": [{"measurement": "IC50", "value": "≤ 5", "unit": "µM"}]}, {"smiles": "Cc1ccc(C(=O)NC2CC2)cc1-c1ccc2c(N3CCNC[C@H]3C)nncc2c1", "note": "[Example 110, N-cyclopropyl-4-methyl-3-{1-[(2R)-2-methylpiperazin-1-yl]phthalazin-6-yl}benzamide]", "values": [{"measurement": "IC50", "value": "≤ 5", "unit": "µM"}]}, {"smiles": "Cc1ccc(C(=O)NC2CC2)cc1-c1ccc2c(NCCN3CCOCC3)nncc2c1", "note": "[Example 111, N-cyclopropyl-4-methyl-3-{1-[(2-morpholin-4-ylethyl)amino]phthalazin-6-yl}benzamide]", "values": [{"measurement": "IC50", "value": "≤ 5", "unit": "µM"}]}, {"smiles": "Cc1ccc(C(=O)NC2CC2)cc1-c1ccc2c(N3C[C@@H](C)OC[C@@H]3C)nncc2c1", "note": "[Example 112, N-cyclopropyl-3-{1-[(2R,5S)-2,5-dimethylmorpholin-4-yl]phthalazin-6-yl}-4-methylbenzamide]", "values": [{"measurement": "IC50", "value": "≤ 5", "unit": "µM"}]}, {"smiles": "Cc1cnc(C(=O)NC2CC2)cc1-c1ccc2c(N3C[C@@H](C)OC[C@H]3C)nncc2c1", "note": "[Example 113, N-cyclopropyl-4-{1-[(2R,5R)-2,5-dimethylmorpholin-4-yl]phthalazin-6-yl}-5-methylpyridine-2-carboxamide]", "values": [{"measurement": "IC50", "value": "≤ 5", "unit": "µM"}]}, {"smiles": "Cc1ccc(C(=O)NC2CC2)cc1-c1ccc2c(N3CCC(C(N)=O)CC3)nncc2c1", "note": "[Example 114, 1-(6-{5-[(cyclopropylamino)carbonyl]-2-methylphenyl}phthalazin-1-yl)piperidine-4-carboxamide]", "values": [{"measurement": "IC50", "value": "≤ 5", "unit": "µM"}]}, {"smiles": "Cc1ccc(C(N)=O)cc1-c1ccc2c(N3C[C@@H]4C[C@H]3CO4)nncc2c1", "note": "[Example 115, 4-methyl-3-{1-[(1S,4S)-2-oxa-5-azabicyclo[2.2.1]hept-5-yl]phthalazin-6-yl}benzamide]", "values": [{"measurement": "IC50", "value": "≤ 5", "unit": "µM"}]}, {"smiles": "Cc1ccc(C(N)=O)cc1-c1ccc2c(N3CCNC(=O)C3)nncc2c1", "note": "[Example 116, 4-methyl-3-[1-(3-oxopiperazin-1-yl)phthalazin-6-yl]benzamide]", "values": [{"measurement": "IC50", "value": "≤ 5", "unit": "µM"}]}, {"smiles": "CCNC(=O)c1ccc(C)c(-c2ccc3c(NC(C)C)nncc3c2)c1", "note": "[Example 117, N-ethyl-3-[1-(isopropylamino)phthalazin-6-yl]-4-methylbenzamide]", "values": [{"measurement": "IC50", "value": "≤ 5", "unit": "µM"}]}, {"smiles": "COc1nncc2cc(-c3cc(C(N)=O)ccc3C)ccc12", "note": "[Example 118, 3-(1-methoxyphthalazin-6-yl)-4-methylbenzamide]", "values": [{"measurement": "IC50", "value": "≤ 5", "unit": "µM"}]}, {"smiles": "Cc1ccc(C(N)=O)cc1-c1ccc2c(N3C[C@H](C)OC[C@@H]3C)nncc2c1", "note": "[Example 119, 3-{1-[(2S,5S)-2,5-dimethylmorpholin-4-yl]phthalazin-6-yl}-4-methylbenzamide]", "values": [{"measurement": "IC50", "value": "≤ 5", "unit": "µM"}]}, {"smiles": "Cc1ccc(C(=O)NC2CC2)cc1-c1ccc2c(N3C[C@@H]4C[C@H]3CO4)nncc2c1", "note": "[Example 120, N-cyclopropyl-4-methyl-3-{1-[(1S,4S)-2-oxa-5-azabicyclo[2.2.1]hept-5-yl]phthalazin-6-yl}benzamide]", "values": [{"measurement": "IC50", "value": "≤ 5", "unit": "µM"}]}, {"smiles": "Cc1cc(C)c(-c2nncc3cc(-c4cc(C(=O)NC5CC5)ccc4C)ccc23)c(C)c1", "note": "[Example 121, N-cyclopropyl-3-(1-mesitylphthalazin-6-yl)-4-methylbenzamide]", "values": [{"measurement": "IC50", "value": "≤ 5", "unit": "µM"}]}]}
